Experimental data from PubChem BioAssay AID492977 (The Scripps Research Institute Molecular Screening Center, 2010).
Active and inactive are the calls of the source.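 How the source made its calls: active means inhibition of the parasite aminopeptidase above 50%; inactive means the rest.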

Biological target: Leucine aminopeptidase (Plasmodium falciparum (isolate 3D7)) (UniProt Q8IL11)
Assay: recombinant PfM17LAP enzyme inhibitors, late-stage follow-up, biochemical, fluorescence, powder samples (AID 492977)
Conditions: H-Leu-NHMec fluorogenic substrate, at 5 µM, stronger effect = higher value

Sequence of Leucine aminopeptidase (Plasmodium falciparum (isolate 3D7)) (Q8IL11 whole entry, looked up): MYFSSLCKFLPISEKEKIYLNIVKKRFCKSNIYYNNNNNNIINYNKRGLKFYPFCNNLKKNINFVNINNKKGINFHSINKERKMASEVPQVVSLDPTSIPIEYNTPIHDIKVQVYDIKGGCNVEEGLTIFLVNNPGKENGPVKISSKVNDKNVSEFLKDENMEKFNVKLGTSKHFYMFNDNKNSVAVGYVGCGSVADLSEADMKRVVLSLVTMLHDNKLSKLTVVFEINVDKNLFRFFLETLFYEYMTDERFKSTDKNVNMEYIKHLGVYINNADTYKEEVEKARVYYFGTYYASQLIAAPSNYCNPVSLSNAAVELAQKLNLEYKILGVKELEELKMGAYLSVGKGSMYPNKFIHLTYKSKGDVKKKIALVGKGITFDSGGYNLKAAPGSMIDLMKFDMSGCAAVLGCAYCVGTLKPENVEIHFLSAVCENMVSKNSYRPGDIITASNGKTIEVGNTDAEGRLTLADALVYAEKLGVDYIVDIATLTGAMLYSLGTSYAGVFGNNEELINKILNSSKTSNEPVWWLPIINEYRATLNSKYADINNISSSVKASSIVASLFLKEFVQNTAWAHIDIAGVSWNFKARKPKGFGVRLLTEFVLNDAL

With `CCOC(=O)c1c(-c2cccc(C)c2)csc1NC(=O)[C@H]1CC=CC[C@H]1C(=O)O` the inhibition was 19% (inactive).

`CCCCc1c(O)nc(SCC(=O)Nc2ccc3c(c2)CCC3)[nH]c1=O` was tested, and the inhibition was 27% (inactive).

In the case of `CCc1ccc(Nc2nnc(SC3CCOC3=O)s2)cc1` (configuration not stated), the inhibition is reported as 31% (inactive).

In the case of `Cc1cc(C(=O)COC(=O)c2ccc[nH]c2=O)c(C)n1-c1ccccc1`, the inhibition is reported as 23% (inactive).

For `O=C(Nc1cc(Cl)ccc1Cl)[C@H]1CC=CC[C@H]1C(=O)O`, the inhibition was 14% (inactive).

In the case of `COc1ccc(-c2cc(=O)[nH][nH]2)cc1`, the inhibition is reported as 40% (inactive).

In the case of `CCc1ccc(NC(=O)[C@H]2CC=CC[C@H]2C(=O)O)cc1`, the inhibition is reported as 27% (inactive).

For `COC(=O)c1cccc(NC(=O)CSc2nc(C)cc(=O)[nH]2)c1`, the inhibition was 21% (inactive).

In the case of `O=C(CSc1nccc(=O)[nH]1)Nc1ccc(Br)c(Cl)c1`, the inhibition is reported as 60%.

In the case of `CCOc1ccc(NC(=O)Nc2cccs2)cc1`, the inhibition is reported as 31% (inactive).

With `COc1ccc(C(C)(C)C)cc1NC(=O)[C@H]1CC=CC[C@H]1C(=O)O` the inhibition was 26% (inactive).

`S=c1nc(-c2ccccc2Br)[nH][nH]1` was tested, and the inhibition was 27% (inactive).

With `O=c1cc(-c2ccc(Cl)c(Cl)c2)[nH][nH]1` the inhibition was 2% (inactive).

`COC(=O)c1c(-c2ccc(C)cc2)csc1NC(=O)[C@H]1CC=CC[C@H]1C(=O)O` was tested, and the inhibition was 47% (inactive).

`CC1=C(C)C[C@@H](C(=O)O)[C@@H](C(=O)Nc2cccc([N+](=O)[O-])c2)C1` was tested, and the inhibition was 12% (inactive).

With `CC(C)c1ccc(NC(=O)[C@H]2CCCC[C@H]2C(=O)O)cc1` the inhibition was 15% (inactive).

`CCOc1cccc(-c2cc(=O)[nH][nH]2)c1` gave an inhibition of 72%.

`COc1ccc2nc(SCC(=O)Nc3cc(OC)c(OC)cc3C(=O)O)c(C)cc2c1` showed an inhibition of 86%.

With `COc1ccc(NC(=O)CSc2nc(O)cc(=O)n2C)cc1` the inhibition was 18% (inactive).

In the case of `COC(=O)c1c(NC(=O)[C@H]2CC=CC[C@H]2C(=O)O)sc(C)c1C`, the inhibition is reported as 17% (inactive).

Compound `COc1cc(NC(=O)CSc2nc3ccccc3cc2C)c(C(=O)O)cc1OC` has an inhibition of 86%.

In the case of `O=C(O)CCCCCNC(=O)Nc1ccc2c(c1)OCCO2`, the inhibition is reported as 15% (inactive).

In the case of `Cc1cc(C(=O)COC(=O)c2ccc[nH]c2=O)c(C)n1-c1ccc(F)cc1`, the inhibition is reported as 19% (inactive).

With `COc1cc(NC(=O)CSc2nc3cc(C)ccc3cc2C)c(C(=O)O)cc1OC` the inhibition was 82%.

With `COc1cc(NC(=O)CSc2nnc3c(C)cc4cc(C)cc(C)c4n23)c(C(=O)O)cc1OC` the inhibition was 72%.

For `COc1ccc(NC(=O)CSC2=NC(=O)CC(C)=N2)cc1`, the inhibition was 21% (inactive).

With `O=C(O)Cc1ccc(NC(=O)Nc2ccc(Br)cc2)cc1` the inhibition was 38% (inactive).

In the case of `CCOc1ccc(NC(=O)Nc2ccc3nccnc3c2)cc1`, the inhibition is reported as 11% (inactive).

With `COC(=O)c1c(-c2ccco2)csc1NC(=O)[C@H]1CC=CC[C@H]1C(=O)O` the inhibition was 50% (inactive).

Work on `COC(=O)c1c(-c2cc(C)ccc2C)csc1NC(=O)[C@@H]1CC=CC[C@@H]1C(=O)O` yielded an inhibition of 58%.

In the case of `Cc1ccc(-n2c(C)cc(C(=O)COC(=O)c3ccc[nH]c3=O)c2C)cc1`, the inhibition is reported as 40% (inactive).

With `N#Cc1c(NC(=O)[C@@H]2C3C=CC(C3)[C@@H]2C(=O)O)sc2c1CCCCC2` (some centres not stated) the inhibition was 25% (inactive).

In the case of `COc1ccc(-c2cc(=O)[nH][nH]2)cc1OC`, the inhibition is reported as 18% (inactive).

In the case of `O=C(Nc1cccc(Cl)c1)[C@H]1CC=CC[C@H]1C(=O)O`, the inhibition is reported as 13% (inactive).

`C=CCn1c(SCC(=O)Nc2cccc3ccccc23)nc(O)c(CC)c1=O` was tested, and the inhibition was 20% (inactive).

In the case of `Cc1ccc(NC(=O)CSc2nnc(C)c(=O)[nH]2)cc1C`, the inhibition is reported as 17% (inactive).

`Cc1ccc(Nc2nnc(SCc3cc(=O)n4ccsc4n3)s2)c(C)c1` was tested, and the inhibition was 10% (inactive).

In the case of `CCOC(=O)c1c(NC(=O)[C@@H]2C3C=CC(C3)[C@@H]2C(=O)O)sc2c1CCC(CC)C2` (some centres not stated), the inhibition is reported as 20% (inactive).

In the case of `Cn1c(SCC(=O)Nc2cccc3ccccc23)nc(O)cc1=O`, the inhibition is reported as 12% (inactive).

For `COc1cc(NC(=O)CSc2nc3c(C)ccc(C)c3cc2C)c(C(=O)O)cc1OC`, the inhibition was 93%.

`Cc1ccc(Nc2nnc(SC3CCOC3=O)s2)cc1` (configuration not stated) was tested, and the inhibition was 53%.

For `Cc1ccc(-n2c(C)cc(C(=O)COC(=O)c3ccc[nH]c3=O)c2C)cc1C`, the inhibition was 36% (inactive).

`O=C(Nc1ccc(Cl)cc1)Nc1cccc(C(=O)O)c1` showed an inhibition of 65%.

In the case of `O=C(CSc1nc(O)cc(=O)n1-c1ccccc1)Nc1ccc2c3c(cccc13)CC2`, the inhibition is reported as 20% (inactive).

For `CCOC(=O)c1c(-c2ccc(C)cc2)csc1NC(=O)[C@H]1CC=CC[C@H]1C(=O)O`, the inhibition was 24% (inactive).

`Cc1ccc(-c2cccc(NC(=O)[C@@H]3C4C=CC(C4)[C@@H]3C(=O)O)c2)o1` (some centres not stated) was tested, and the inhibition was 9% (inactive).

`CCc1cc2cc(OC)ccc2nc1SCC(=O)Nc1cc(OC)c(OC)cc1C(=O)O` showed an inhibition of 89%.

For `Cc1ccc(-c2c(C)sc(NC(=O)[C@@H]3C4CCC(O4)[C@@H]3C(=O)O)c2C(=O)OC(C)C)cc1` (some centres not stated), the inhibition was 19% (inactive).

`O=c1cc(-c2ccc(F)cc2)[nH][nH]1` was tested, and the inhibition was 49% (inactive).

Compound `CCn1c2ccccc2c2cc(NC(=O)CSc3nccc(=O)[nH]3)ccc21` has an inhibition of 70%.

In the case of `CCOC(=O)c1c(NC(=O)[C@@H]2C3CCC(O3)[C@@H]2C(=O)O)sc(C)c1-c1ccc(C)cc1` (some centres not stated), the inhibition is reported as 20% (inactive).

With `COC(=O)c1c(NC(=O)[C@H]2CCCC[C@H]2C(=O)O)sc2c1CCCCC2` the inhibition was 59%.

In the case of `O=C(CSc1nnc(Nc2ccccc2)s1)NN1C(=O)NC2(CCCCC2)C1=O`, the inhibition is reported as 37% (inactive).

For `S=c1nc(-c2cccc(Cl)c2)[nH][nH]1`, the inhibition was 45% (inactive).

`CCc1cc2ccc(C)cc2nc1SCC(=O)Nc1cc(OC)c(OC)cc1C(=O)O` gave an inhibition of 90%.

For `CCN(CC)c1ccc(NC(=O)CSc2nc(C)cc(=O)[nH]2)cc1`, the inhibition was 43% (inactive).

With `CCc1cc2ccccc2nc1SCC(=O)Nc1cc(OC)c(OC)cc1C(=O)O` the inhibition was 89%.
